# Measured values as given in patent US9849102B2, “Treatment for reducing inflammation” (ISIFER AB, priority 2010, dated 2017).
# Entries after “also recorded” stand apart in the source; their conditions may differ.
# Experiments:
# Format in all cases: cell-based, human
# MCP-1 = assay: ELISA of MCP-1 production from endometriosis cells incubated with lidocaine
# Description: (§1) During laparotomy, human endometriosis tissue biopsies from endometriosis cysts were obtained from four women during laparotomy. The tissue samples were handled aseptically, transported to the laboratory and frozen in fluid nitrogen to −150° C. The biopsies were later verified histologically as endometriosis tissue. The sampling procedure was approved by the Ethical Committee. The frozen endometriosis tissues were thawed in water at +37° C. and then transferred to test tubes. Two tissue biopsy samples were taken from each endometrioma and prepared as follows: the endometriosis tissue covering the inside of endometriosis cysts was detached from encapsulating fibrous tissue by gentle scraping with a knife. The tissue was then exposed for 0.2% collagenase Type III (Worthington Biochemical Corporation Freehold, N.J., USA) for 2 h. The cell suspension was then centrifuged at 1500 rpm for 10 min. The cells were re-suspended in RPMI 1640 cell culture medium with L-glutamine and phenol red (Invitrogen Ltd), 20% Foetal Bovine serum (Invitrogen Ltd), sodium pyruvate, MEM 100 mM (Invitrogen Ltd), non-essential amino acids (Invitrogen Ltd), heparin 90 μg/ml (Sigma-Aldrich Fine Chemicals St Louis, Mo., USA), penicillin-streptomycin with 10.000 Units/ml penicillin G sodium and 10.000 μg/ml streptomycin sulphate in 0.85% saline (Invitrogen Ltd), Hepes buffer solution 1M (Invitrogen Ltd) and seeded in T-75 cm^2 cell culture flasks (Nunc, Roskilde, Denmark) pre-coated with 0.2% gelatin (Sigma-Aldrich). The culture medium was changed the following day and thereafter once a week. When confluent monolayers were obtained after 3 weeks, the cultures were tryptinized cultures from passages 4 and 6 were frozen in fluid nitrogen to −150° C. and later used for experiments.
# (§2) The lidocaine treatments of the cells were performed in duplicates on the endometriosis cells that were used for experiments. […] The production of MCP-1, TNF-α and […] was measured according to the manufacturer's using an enzyme-linked immunosorbent assay (ELISA, Quantikine, R&D Systems, Minneapolis, Minn. 55413, USA).
# TNF-α = assay: ELISA of TNF-α production from endometriosis cells incubated with lidocaine
# Description: as §1, §2
# IL-1β = assay: ELISA of IL-1β in cell medium of endometriosis cells incubated with lidocaine
# Description: as §1, §2
# [1] = incubation with lidocaine 1 mg/ml, 24 and 48 h, versus control
smiles,measurement,setting,value
CCN(CC)CC(=O)Nc1c(C)cccc1C [Lidocaine],MCP-1 in Lidocaine medium 24 h,"MCP-1; human endometriosis cell culture medium, lidocaine hydrochloride 1 mg/ml, 24 h, control medium 24 h 145.0",62.0 pg/mL
same,MCP-1 in Lidocaine medium 48 h,"MCP-1; human endometriosis cell culture medium, lidocaine hydrochloride 1 mg/ml, 48 h, control medium 48 h 315.0",122.0 pg/mL
same,MCP-1 production from endometriosis cells (in words),MCP-1; [1],substantial reduction; also recorded: seems to be reduced
same,TNF-α in Lidocaine medium 24 h,"TNF-α; human endometriosis cell culture medium, lidocaine hydrochloride 1 mg/ml, 24 h, control medium 24 h 8.2",9.4 pg/mL
same,TNF-α in Lidocaine medium 48 h,"TNF-α; human endometriosis cell culture medium, lidocaine hydrochloride 1 mg/ml, 48 h, control medium 48 h 10.5",10.0 pg/mL
same,production of TNF-α from endometriosis cells (in words),TNF-α; [1],unaffected
same,concentration of IL-1β in the cell medium (in words),IL-1β; before and after incubation with lidocaine,at a low level
same,IL-1β in Lidocaine medium 24 h,"IL-1β; human endometriosis cell culture medium, lidocaine hydrochloride 1 mg/ml, 24 h, control medium 24 h <5.00",<5.00 pg/mL
same,IL-1β in Lidocaine medium 48 h,"IL-1β; human endometriosis cell culture medium, lidocaine hydrochloride 1 mg/ml, 48 h, control medium 48 h <5.00",<5.00 pg/mL
